Measured values taken from patent US9649305B2, “PFKFB3 inhibitor and methods of use as an anti-cancer therapeutic” (ADVANCED CANCER THERAPEUTICS, LLC, priority 2012, dated 2017).
Read-outs that look alike come from different tables or passages of the source.

Tests used:
[1] = target: T1, PFKFB3 (Homo sapiens, UniProt Q16875); assay: Enzymatic activity of recombinant PFKFB3, ADP-Glo assay; format: biochemical
Protocol: The inducible bifunctional 6-Phosphofructo-2-kinase/fructose2,6-biphosphatase enzyme (PFKFB3) was expressed and purified in order to determine if PFK-158 inhibits enzymatic activity. PFKFB3 was prepared by expression in E. coli and purified by GST column and column chromatography. […] The recombinant protein was pure and active as determined by the results of a commercially available kinase activity assay (ADP-Glo™, Promega, Madison, Wis.).

[2] = tested on: Jurkat cells; assay: Inhibition of 14C-2-deoxyglucose uptake; format: cell-based; conditions: Homo sapiens, read-out: IC50, Inhibition of 2 deoxyglucose uptake
Protocol: Inhibition of PFKFB3 results in inhibiting glycolysis. Several feedback or feedforward activation and inhibition mechanisms exist so that, by a feedback mechanism, inhibiting the activity of PFKFB3 might inhibit glucose uptake by cells. An assay was developed to determine if there was inhibition of glucose uptake following exposure PFK-158. Briefly, Jurkat cells were plated at 10^5 cells/mL in RPMI 1640 supplemented with 10% fetal bovine serum and 50 μg/mL gentamicin sulfate. Cells were immediately treated with vehicle or 0.5 μmol/L of PFK-158 for 3 hours and subsequently placed in glucose-free RPMI 1640 for 30 min. ^14C-2-deoxyglucose (0.25 μCi/mL; Perkin Elmer) was added for an additional 60 min and cells were then washed three times with ice-cold RPMI 1640 containing no glucose. Cell lysates were collected in 500 μL of 0.1% SDS and scintillation counts (counts/min) were measured on 400 μL of lysate. Counts were normalized to protein concentration.

[3] = tested on: Jurkat cell line (leukemia cell line); assay: Toxicity / cell growth of Jurkat cell line; format: cell-based; conditions: Homo sapiens, Jurkat, read-out: IC50, toxicity of Jurkat cell line (leukemia cell line)
Protocol: The ability of PFK-158 to kill or inhibit the proliferation of cancer cells was measured using either the MTT assay, the alamarBlue® assay (Invitrogen, Grand Island, N.Y.), or the CellTiter Glo™ assay (Promega, Madison, Wis.) using 48 or 72 hours exposure.
Cells of the desired tumor cell line were plated at 2×10^5 cells/ml in 96 well plates. Twice the indicated concentrations of the compounds of the invention were added to cells the following day in an equal volume of media. 72 hours later, cells were lysed and subjected to ATP determination using the CellTiter-Glo™ Luminescent Cell Viability Assay kit. Experiments were performed in triplicate. When using the MTT assay or the alamarBlue® assay, the experimental conditions are essentially similar; at the end of the incubation period, 20 microliters of the MTT solution is added per well and the samples are incubated for an additional four hours, rinsed, and absorbance at 570 nm was measured. Results for the inhibition of cell proliferation are reported as the IC50 (the concentration resulting in 50% inhibition of proliferation of the cell population) and are listed in Table 5 below. Cell lines include lung, colon, prostate, breast, ovarian, and pancreatic cancer lines.

[4] = IV pharmacokinetics in mice; format: in vivo, Balbc mice; conditions: mouse, plasma, 5 mg/kg, IV dosing; for AUC(0-inf): read-out: AUC0-inf; for Cmax: read-out: Cmax
Protocol: The pharmacokinetic (PK) parameters for PFK-158 were determined in mice following IV (intravenous) administration in mice and rats. A typical study design includes six animals (male or female) 7 to 8 weeks old.
Mouse pharmacokinetic properties using a dose of 5 mg/kg were determined after IV administration using a 10% DMSO, 10% PEG-200, 10% Solutol:ethanol (1:1) and 70% D5W solution or any other pharmaceutically acceptable parenteral formulation. Blood samples were collected at different intervals. Plasma samples were extracted and analyzed using an LC-MS/MS method. Similar protocols were used for the rat PK study (Sprague Dawley rats; 30 mg/kg), although the formulation for rat PK studies differed (30% Captisol, pH 3.0 solution). Time vs. plasma concentration plots were prepared as shown in FIGS. 4 (BalbC mice) and 5 (SD rats), respectively. Pharmacokinetic parameters were calculated and are provided below in Table 7.

[5] = target: T1, PFKFB3; assay: Enzymatic activity of PFKFB3 in cells (F2,6BP levels, Van Schaftingen method); format: cell-based; design: endogenous in cells; host or cells: Jurkat cells; conditions: read-out: IC50, Enzymatic activity of PFKFB3 in cells
Protocol: Inhibition of PFKFB3 can also be measured in cells by measuring fructose-2,6-biphosphate levels according to the Van Schaftingen method (Eur. J. of Biochem, 129: 191 (1982)). This method enables measurement of the inhibition in a cellular environment, a model more relevant than the pure recombinant protein. Briefly, Jurkat cells were plated at 1×10^5 cells/mL and incubated with different concentrations of PFK-158 for 3 hours. Samples were collected and cells were lysed. Extracts were characterized as described in previous reports and normalized to protein concentration.

[6] = In vitro stability in human liver microsomes; format: in vitro ADME
[7] = Maximum tolerated dose study; format: in vivo; conditions: C57/B16, mouse, in vivo; 3 days on/3 days off schedule; read-out: MTD
Protocol: Several maximum tolerated dose studies and toxicology studies were performed and the results indicated PFK-158 is safer than PFK-015. Studies were performed in C57/B16 mice and SD rats.

[8] = Repeat-dose toxicology study in SD rats; format: in vivo
Protocol: Toxicology studies were performed in SD rats comparing PFK-158 and PFK-015 using a repeat dosing schedule. The studies were performed at dose levels ranging from 5 to 30 mg/kg and animals were monitored for weight loss, behavior, clinical signs, and clinical chemistries. At the end of the study, gross pathology and histopathology were performed.

[9] = tested on: lung cancer model, pancreatic cancer model, colon cancer model; assay: Tumor growth inhibition in mouse cancer models; conditions: mouse cancer models, during treatment
Protocol: Studies determining efficacy of PFK-158 at inhibiting tumor growth in mouse cancer models were performed. These studies were carried out with PFK-158 alone and in combination with compounds currently used in the treatment of cancer patients. Studies were performed in a lung cancer model, a pancreatic cancer model, and in a colon cancer model.
Efficacy of PFK-158 was studied in vivo in tumor models. Several tumor models were used in these studies (the Lewis lung carcinoma, or LLC model, the CT-26 colon carcinoma tumor model, or the BXPC3 pancreatic cancer model). The experimental protocol for the LLC study is described below. Subsequent to subcutaneous inoculation of tumor cells, tumors started to develop and once tumors reached the desired volume of 100-125 mm^3 on average, treatment was initiated. Tumor volume was monitored in both groups and the average for both the control and treatment groups was measured three times a week, as well as body weights.
Briefly, normal female C57BL/6 mice at 7-8 weeks of age were used for the study. Mice were housed in microisolator housing, with food and water provided as libitum, and quarantined for 4 days prior to the initiation of the study. LLC cells were maintained in a monolayer culture in DMEM medium supplemented with 10% heat inactivated fetal calf serum, 100 U/ml penicillin and 100 μg/ml streptomycin, and L-glutamine (2 mM) at 37° C. in an atmosphere of 5% CO2 in air. The tumor cells were routinely sub-cultured twice a week. The cells growing in an exponential phase were harvested and counted for tumor inoculation. Each mouse was inoculated subcutaneously at the right flank with the LLC tumor cells (3×10^5) in 0.1 ml of PBS for tumor development. When athymic nude mice were used, as for the BxPC3 model, then the strain of mice is slightly different. Furthermore, the use of Matrigel supports tumor development, meaning that cells are suspended in 100 μl of a mixture of medium/Matrigel (1:1) and are then subcutaneously implanted in the right flank region. Animals were monitored for tumor growth daily after cell implantation. When tumor volumes reached approximately 100-125 mm^3, mice were randomized into groups of 8 mice each using only mice having tumor volumes closest to the mean value. Tumor volumes were measured using the formula V=L×W×H×π/6, where L and W represent the longer and shorter diameters of the tumor and H represents the height of the tumor. Treatment began following randomization. PFK-158 was administered IP at a dose of 60 mg/kg on days 1, 3, 5, 7, 9, 11, and 13.
Similar protocols were used for the other studies using different models; differences included the use of Balbc/nude mice; administering larger number of cancer cells; and use of Matrigel.

[10] = IV pharmacokinetics in rats, 40 mg/kg; format: in vivo; conditions: IV 40 mg/kg; for Plasma AUC0→t: Captisol solution
Protocol: (§1) In another embodiment, a cyclodextrin based solution was used to investigate the PK profile of PFK-158, 2HCl at a higher concentration in both rats and dogs.
(§2) The solution was prepared with 40% w/v Captisol® in water for injection, 5% Mannitol, and a pH 2.3 citrate buffer leading to a 8 mg/ml concentration of PFK-158, 2HCl. This solution was safely administered IV to rats and dogs at a dose of 40 mg/kg. Blood samples were taken over a 24 hour period and analyzed. […] Pharmacokinetic parameters were calculated in the same way in dogs: plasma AUC0→24 values of 16,100±700 and 15,900±2600 hr·ng/mL, and plasma C5 min values of 6960±1180 and 6900±900 ng/mL were obtained for male and female dogs, respectively.

[11] = IV pharmacokinetics in dogs, 40 mg/kg; format: in vivo; conditions: IV 40 mg/kg
Protocol: as §1, §2

[12] = Table 8, read-out: IC50, Enzymatic activity of PFKFB3, ADP-Glo Assay

T1 sequence (Q16875 whole entry): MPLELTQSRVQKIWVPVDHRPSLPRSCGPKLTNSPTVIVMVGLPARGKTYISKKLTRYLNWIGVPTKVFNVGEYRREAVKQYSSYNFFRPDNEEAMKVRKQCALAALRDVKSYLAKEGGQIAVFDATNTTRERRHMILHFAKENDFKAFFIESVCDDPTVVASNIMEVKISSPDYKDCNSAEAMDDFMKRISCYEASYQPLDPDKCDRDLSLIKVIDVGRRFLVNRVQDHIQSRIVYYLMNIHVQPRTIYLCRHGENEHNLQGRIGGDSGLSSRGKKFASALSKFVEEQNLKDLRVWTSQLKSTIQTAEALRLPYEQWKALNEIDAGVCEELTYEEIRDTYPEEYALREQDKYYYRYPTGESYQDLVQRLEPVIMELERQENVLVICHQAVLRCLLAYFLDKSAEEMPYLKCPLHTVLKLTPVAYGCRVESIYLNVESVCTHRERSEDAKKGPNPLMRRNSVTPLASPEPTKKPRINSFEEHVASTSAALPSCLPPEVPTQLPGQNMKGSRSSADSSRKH

SMILES	IC50 [1, 12] [nM]	IC50 ([2]; Jurkat, Table 8) [nM]	IC50 ([3]; Table 8) [nM]	clearance ([4]; Table 9, BalbC mice) [mL/min/kg]	half-life ([4]; Table 9, BalbC mice) [h]	AUC(0-inf) ([4]; Table 9, BalbC mice) [ng·h/mL]	Cmax ([4]; Table 9, BalbC mice) [ng/mL]	IC50 ([5]; Table 8) [nM]	further results
O=C(/C=C/c1ccc2cccc(C(F)(F)F)c2n1)c1ccncc1 [PFK-153, 1-Pyridin-4-yl-3-(8-trifluoromethyl-quinolin-2-yl)-propenone]	173 ± 23	1200 ± 600	900 ± 100	327	3.8	225	397	6000 ± 600	–
O=C(/C=C/c1ccc2ccccc2n1)c1ccncc1 [PFK-015]	–	–	–	–	–	–	–	–	IC50 ([1]; Table 1, read-out: IC50, Enzymatic activity of PFKFB3, ADP Glo Assay): 318 ± 19 nM; IC50 ([2]; Table 1, Jurkat cells): 1200 ± 100 nM; IC50 ([3]; Table 1): 800 ± 100 nM; clearance ([4]; Table 2, Balbc mice): 46 mL/min/kg; half-life ([4]; Table 2, Balbc mice): 5 h; AUC(0-inf) ([4]; Table 2, Balbc mice): 1800 ng·h/mL; Cmax ([4]; Table 2, Balbc mice): 3050 ng/mL; Percent metabolized after 1 hr [6]: 67%; MTD [7]: 30 mg/kg; MTD ([8]; rat, in vivo, repeat dosing schedule): 12 mg/kg; Adverse observations in toxicology study ([8]; repeat dosing, PFK-158 5 to 30 mg/kg, PFK-015 12 and 25 mg/kg): adverse observations at both dose levels; body weight loss [9]: higher than 15%; IC50 ([5]; Table 1, F2,6BP levels, Jurkat cells): 4700 ± 1600 nM
Cl.Cl.O=C(/C=C/c1ccc2ccc(C(F)(F)F)cc2n1)c1ccncc1 [PFK-158, 2HCl]	–	–	–	–	–	–	–	–	plasma Cmax ([10]; female rats): 39,500±10,000 ng/mL; Plasma AUC0→t ([10]; female rats): 27,700±5800 hr·ng/mL; plasma Cmax ([10]; male rats): 51,400±6300 ng/mL; Plasma AUC0→t ([10]; male rats): 37,600±2800 hr·ng/mL; plasma AUC0→24 ([11]; female dogs): 15,900±2600 hr·ng/mL; plasma C5 min ([11]; female dogs): 6900 ± 900 ng/mL; plasma AUC0→24 ([11]; male dogs): 16,100±700 hr·ng/mL; plasma C5 min ([11]; male dogs): 6960 ± 1180 ng/mL
O=C(/C=C/c1ccc2cc(OCCN3CCCCC3)ccc2n1)c1ccncc1 [PFK-150, 3-(6-(2-piperidin-1-yl-ethoxy)-quinolin-2-yl)-1-pyridin-4-yl-propenone]	802 ± 177	3800 ± 800	2500 ± 400	1330	2.5	63	40	15600 ± 1400	–
COc1ccc2nc(/C=C/C(=O)c3ccncc3)ccc2c1 [PFK-138, 3-(6-methoxy-quinolin-2-yl)-1-pyridin-4yl-propenone]	431 ± 34	2200 ± 300	1200 ± 200	154	0.7	541	991	7400 ± 1800	–
COc1ccc2nc(/C=C/C(=O)c3ccnc(OC)c3)ccc2c1 [PFK-144, 1-(2-methoxy-pyridin-4-yl)-3-(6-methoxy-quinolin-2-yl)-propenone]	654 ± 94	3100 ± 500	1700 ± 300	120	2.8	696	1500	10700 ± 300	–
Cc1ccc2ccc(/C=C/C(=O)c3ccncc3)nc2c1 [PFK-154, 3-(7-Methyl-quinolin-2-yl)-1-pyridin-4-yl-propenone]	–	2200 ± 600	1300 ± 100	75	6.1	1100	672	11300 ± 600	–
